Patent US5219825A, “Synergistic herbicidal compositions comprising herbicides which generate toxic oxygen radicals and chelating agents which inhibit their detoxification” (Yeda Research and Development Co., Ltd., priority 1986, dated 1993)

Key:
[1] = test system: isolated Asparagus sprengeri cells; experiment: Chlorophyll loss in isolated cells (synergism at the cellular level); assay type: cell-based; conditions: for chlorophyll remaining - % of control: paraquat 0 μM, 14 h, 1000 μEin m^-2 s^-1; for % of control chlorophyll: DDC 0.02% where added, 40 h, low light 305 μEin m^-2 s^-1
Description: Isolated cells offer an excellent rapid method of screening for phytotoxicity using a large number of potential chelators and synergists. Asparagus sprengeri cells were isolated from cladophylls of field grown plants using the procedure of Colman et al. (Can. J. Botany 57 1505, (1979)) except that the isolation, washing and culture buffer was 50 mM HEPES brought to pH 7.2 with KOH. The cladophylls were surface sterilized using 80% aqueous ethanol. After three centrifugations to remove broken cells, the cells were diluted to 10% packed volume and 0.75 ml were placed in each well of cluster dishes. The potential synergists in this example 0.02% w/v final concentration diethyldithiocarbamate (DDC) and an oxime of 4-octyl-2-acetyl-phenol (U.S. Pat. No. 4,215,219) which complex primarily with copper and di-2-ethylhexyl-phosphoric acid which complexes primarily with zinc (Flett, Chem and Ind. 17 706, (1977)) was placed with the herbicides atrazine and paraquat. All additions were made at 100 fold the final concentration of herbicide and synergist. Paraquat was dissolved in water and atrazine in methanol. The cluster dishes were incubated on a reciprocal shaker with a clear plastic bottom and illuminated from top and bottom with fluorescent lights emitting 135 μEin.m^-2 s^-1 (top) and 170 μEin.m^-2 s^-1 (bottom). The cells were kept mixed by the shaker and incubation was at room temperature. Incubation was stopped when there was visually obvious loss of chlorophyll due to treatments in a given experiment. The cells were removed to glass centrifugation tubes, centrifuged and the supernatant removed. One ml of 80% aqueous acetone was added to extract chlorophyll, the debris were sedimented by centrifugation and chlorophyll was spectrophotometrically determined at 645 and 663 nm according to Arnon (Plant Physiology 24 1, (1949)). […] In another experiment, a larger variety of chelating synergists and oxidant generating herbicides were used, and light was given at a much higher intensity 1000 μEin m^-2 s^-1 to better approach natural sunlight which is at 1200-1500 […].
Paraquat toxicity was measured 24 h after treatment and atrazine toxicity was measured 40 h after treatment.
Paraquat toxicity was measured 14 h after treatment.

bean leaf discs = experiment: Bean leaf disc bleaching assay; assay type: cell-based; conditions: 5 h at 450 μEin.m^-2 s^-1
Description: We used this bean leaf disc system to ascertain the potential of chelators to synergize a large variety of phytotoxicants purported to act by generating active oxygen species in the light.
Bean discs were incubated on solutions containing the above mixtures for 5 h at 450 μEin.m^-2 s^-1 and the chlorophyll remaining in the leaves was assayed.

[2] = test system: Conyza bonariensis high herbicide requiring biotype; experiment: Whole plant spray, visual rating; assay type: in vivo; conditions: DDC 0.5% where added, high herbicide requiring biotype; for visual ratings: scored one day after treatment
Description: (§1) Seeds of Conyza bonariensis were germinated and plants cultivated as outlined in Example 1. Other species were germinated in a similar mixture and treated at 10 days.
(§2) The commercial fungicides, maneb [manganese ethylene-bis(dithiocarbamate) (polymeric)] and zineb [zinc ethylene-bis (dithiocarbamate) (polymeric)] were used, they have similar structures and effects as DDC, but are blocked and act as chelate controls […] to clarify that a synergism would be due to the chelating effect of diethyldithiocarbamate. […] They could not chelate copper due to their being blocked.
(§3) ^a visual ratings (scored 1 day after treatment): 0 no damage to
(§4) slight burn; 1 moderate burn (may regenerate); 2 severe burn (will die)
(§5) Similarly, both the paraquat resistant and sensitive biotypes of Conyza bonariensis were treated with two other oxidant generating herbicides. Atrazine (of the triazine group) is the most widely used oxidant generating herbicides in agriculture. We used various dilutions of a commercial wettable powder (Atranex 50WP-Agan Chemicals) to which we added 0.5% DDC. The effects were scored 24 h later. […] We also tested to see whether acifluorfen, a nitro diphenyl ether herbicide would be synergized. It is generally agreed that light and oxygen are required for its action via oxidant damage. We sprayed a commercial formulation of acifluorfen (Blazer, Rohm and Haas) to which were added 0.25% Tween-20 detergent, with and without DDC. The effects were scored 24 h later.

[3] = test system: Conyza bonariensis paraquat tolerant biotype; experiment: Phytotoxicity measured as 14CO2 fixation 24 h after spraying; assay type: in vivo; conditions: tolerant biotype
Description: (§6) Seeds of two biotypes of Conyza bonariensis (L.) Cronq. (synonym C. linifolia) were obtained from Egypt. The paraquat sensitive biotype was gathered near Alexendria and seeds of the resistant type from the Tahrir irrigation district. They were obtained from Dr. Martin Parham in England. Seeds were germinated in a growth room with a 14 h light period at 25° C. Plants were transferred out of doors 24 h before being sprayed. The phytotoxicity of three herbicides representative of the three different modes of generating active oxygen species known at present. Commercial paraquat (Gramoxone-ICI Plant Protection Ltd) was formulated with 0.1% (w/v) Tween-20 (a non-ionic surfactant) for spraying. The response to the range of 10^-5 M to 10^-2 M paraquat was measured by spraying two plants per concentration to run-off in the early morning. All plants were exposed to sunlight for at least 13 h (1300 μE.m^-2s^-1 photosynthetically active radiation (PAR) at mid day). Commercial acifluorfen (Blazer, Rohm, and Hass, Philadelphia, Pa., USA) to which was added 0.25% Tween-20 was sprayed to run-off. The response to spraying was measured as with paraquat 24 h after spraying. Commercial atrazine (Atranex 50 WP-Agan) was sprayed at various rates in 0.25% Tween 20 to run off. Fully expanded, 8 to 10 cm long leaves from plants in the rosette stage were used in all experiments. Phytotoxicity of acifluorfen and paraquat was measured as CO2 fixation 24 h later as follows: Detached leaves were placed on wet filter paper in a sealed chamber with 5μ Ci^14 C-sodium bicarbonate. Tartaric acid was remotely dripped on the sodium bicarbonate to release ^14 CO2. Leaves were illuminated with […] (PAR) for 30 min. Eighty percent acetone was added and the mixture put under strong light to photobleach pigments and evaporate the acetone. A scintillation mixture of Lumax:xylene (45:55) was added to the leaves and remaining water. The samples were counted and the data expressed as DPM.cm^-2. Area was measured with a planimeter from photocopies of the leaves made prior to photosynthesis measurements. Phytotoxicity of atrazine was measured as the elevated level of malonyldialdehyde in the tissue. Malonyldialdehyde (as measured with thiobarbituric acid according to Dodge and Gillham (Asp. Appl. Biol 11 97 (1986)) is a measurement of lipoxidation of unsaturated fatty acids, and provides an excellent estimation of damage by active oxygen species.

[4] = test system: Conyza bonariensis paraquat sensitive biotype; experiment: as above; assay type: in vivo; conditions: sensitive biotype
Description: as §6

[5] = test system: Conyza bonariensis low herbicide requiring biotype; experiment: Photosynthesis (14CO2 fixation) of leaf discs removed 5 h after spray treatment; assay type: in vivo; conditions: foliar, DDC 0.5% where added, leaf discs removed 5 h after treatment, untreated control = 100
Description: as §5
^b photosynthesis (^14 CO2 fixation) was used as an
additional measurement of phytotoxicity. Leaf discs were removed 5 h afte
treatment for measurement

[6] = test system: Conyza bonariensis paraquat sensitive (low herbicide requiring) biotype; experiment: Malonyldialdehyde in tissue (lipoxidation, membrane damage) after spraying; assay type: in vivo; conditions: for membrane damage (malonyldialdehyde release): DDC 0.5% where added, low herbicide requiring biotype, untreated control = 100; for malonyldialdehyde in tissue (% untreated control): sensitive biotype
Description: as §6
(§7) ^b membrane damage was measured as malonyldialdehyde release
as §5

[7] = test system: Conyza bonariensis paraquat tolerant (high herbicide requiring) biotype; experiment: as above; assay type: in vivo; conditions: for membrane damage (malonyldialdehyde release): DDC 0.5% where added, high herbicide requiring biotype, untreated control = 100; for malonyldialdehyde in tissue (% untreated control): tolerant biotype
Description: as §6, §7, §5

[8] = test system: Conyza bonariensis low herbicide requiring biotype; experiment: Whole plant spray, visual rating; assay type: in vivo; conditions: DDC 0.5% where added, scored one day after treatment
Description: as §1, §2, §3, §4, §5

leaves = experiment: Blocked chelate controls tested for synergism with paraquat; assay type: in vivo
Description: as §2

[9] = herbicide molar conc. 3.2 × 10^-3
[10] = atrazine 20 μM spray to run off
[11] = atrazine 40 μM spray to run off
[12] = atrazine molar conc. 1.0 × 10^-2
[13] = atrazine molar conc. 1.5 (× 10^-2)
[14] = atrazine molar conc. 2.0 (× 10^-2)
[15] = atrazine molar conc. 3.0 (× 10^-2)
[16] = atrazine molar conc. 4.0 (× 10^-2)
[17] = atrazine molar conc. 5.0 (× 10^-2)
[18] = atrazine 15 μM spray to run off
[19] = atrazine 30 μM spray to run off

CCCCCCCCc1ccc(O)c(C(C)=NO)c1 [4-Octyl-2-acetyl-phenol oxime, oxime of 4-octyl-2-acetyl-phenol]
chlorophyll remaining - % of control ([1]; chelator alone 0.125%): 96 % of control

O=C(O)c1cccc(C(=O)O)n1 [Pyridine-2,6-dicarboxylic acid]
chlorophyll remaining - % of control ([1]; chelator alone 0.005%): 100 % of control

NCCNCCNCCNCCN [Tetraethylene-pentamine, tetraethylene pentamine]
chlorophyll remaining - % of control ([1]; chelator alone 0.025%): 99 % of control

NCCNCCNCCN [Triethylene-tetramine]
chlorophyll remaining - % of control ([1]; chelator alone 0.008%): 90 % of control

O=C(O)c1cc(Oc2ccc(C(F)(F)F)cc2Cl)ccc1[N+](=O)[O-] [acifluorfen]
chlorophyll - % of control (bean leaf discs; acifluorfen 3 μM, chelator 0.01% w/v where added): 91 % of control
visual rating ([2]; acifluorfen 100 μM spray to runoff, scored 24 h after treatment): 2.5
% photosynthesis inhibition [3, 9]: 67%
% photosynthesis inhibition ([3]; herbicide molar conc. 10^-2): 99%
% photosynthesis inhibition ([3]; herbicide molar conc. 10^-3): 21%
% photosynthesis inhibition [4, 9]: 72%
% photosynthesis inhibition ([4]; herbicide molar conc. 3.2 × 10^-4): 40%
% photosynthesis inhibition ([4]; herbicide molar conc. 10^-2): 98%
% photosynthesis inhibition ([4]; herbicide molar conc. 10^-3): 58%
% photosynthesis inhibition ([4]; herbicide molar conc. 10^-4): 23%
activity at 3 µM ([5]; acifluorfen 3 μM spray to runoff): 75%
activity at 100 µM ([5]; acifluorfen 100 μM spray to runoff): 10%

CCNc1nc(Cl)nc(NC(C)C)n1 [atrazine]
% of control chlorophyll ([1]; atrazine 3 × 10^-6 M, 3 µM): 95 % of control
% of control chlorophyll ([1]; atrazine 10^-5, 10 µM): 92 % of control
membrane damage (malonyldialdehyde release) [6, 10]: 130
membrane damage (malonyldialdehyde release) [6, 11]: 225
malonyldialdehyde in tissue (% untreated control) [6, 12]: 100 % untreated control
malonyldialdehyde in tissue (% untreated control) [6, 13]: 135 % untreated control
malonyldialdehyde in tissue (% untreated control) [6, 14]: 130 % untreated control
malonyldialdehyde in tissue (% untreated control) [6, 15]: 155 % untreated control
malonyldialdehyde in tissue (% untreated control) [6, 16]: 225 % untreated control
malonyldialdehyde in tissue (% untreated control) [6, 17]: 320 % untreated control
membrane damage (malonyldialdehyde release) [7, 10]: 100
membrane damage (malonyldialdehyde release) [7, 11]: 100
malonyldialdehyde in tissue (% untreated control) [7, 12]: 100 % untreated control
malonyldialdehyde in tissue (% untreated control) [7, 13]: 100 % untreated control
malonyldialdehyde in tissue (% untreated control) [7, 14]: 100 % untreated control
malonyldialdehyde in tissue (% untreated control) [7, 15]: 100 % untreated control
malonyldialdehyde in tissue (% untreated control) [7, 16]: 100 % untreated control
malonyldialdehyde in tissue (% untreated control) [7, 17]: 125 % untreated control
visual ratings [8, 18]: 2.1
visual ratings [8, 19]: 2.3
visual ratings [2, 18]: 1.7
visual ratings [2, 19]: 1.7

CCCCC(CC)COP(=O)(O)OCC(CC)CCCC (centres unmarked) [di-2-ethyl-hexyl-phosphoric acid, Di-2-ethyl-hexyl phosphoric acid]
chlorophyll - % of control (bean leaf discs; acifluorfen 0 μM, chelator alone 0.01% w/v): 98 % of control
chlorophyll - % of control (bean leaf discs; acifluorfen 0 μM, chelator alone 0.02% w/v): 91 % of control
chlorophyll - % of control (bean leaf discs; paraquat 0 μM, chelator alone 0.01% w/v): 98 % of control
chlorophyll remaining - % of control ([1]; chelator alone 0.001%): 98 % of control

manganese ethylene-bis(dithiocarbamate) (polymeric) [maneb]
synergistic effects with paraquat (leaves): Neither maneb nor zineb had synergistic effects with paraquat

zinc ethylene-bis (dithiocarbamate) (polymeric) [zineb]
synergistic effects with paraquat (leaves): Neither maneb nor zineb had synergistic effects with paraquat
